# Target: GDP-bound KRAS protein (aa 1-169), containing both G12C and C118A amino acid substitutions (Homo sapiens, UniProt P01116, C118A/G12C)
# Assay: Coupled Nucleotide Exchange Assay (SOS-mediated nucleotide exchange, AlphaScreen)
# Format: biochemical
# Conditions: compound pre-incubation either 5 min or 2 hours (not stated per compound); SOS and GTP added, cRAF AlphaScreen read-out
# Experimental: For compounds in Table 6, the following assay conditions were employed:
# Coupled Nucleotide Exchange Assay: Purified GDP-bound KRAS protein (aa 1-169), containing both G12C and C118A amino acid substitutions and an N-terminal His-tag, was pre-incubated in assay buffer (25 mM HEPES pH 7.4, 10 mM MgCl2, and 0.01% Triton X-100) with a compound dose-response titration for either 5 min or 2 hours (see Table 15). Following compound pre-incubation, purified SOS protein (aa 564-1049) and GTP (Roche 10106399001) were added to the assay wells and incubated for an additional 30 min (for 5 min compound pre-incubation) or 1 hour (for 2 hour compound pre-incubation). To determine the extent of inhibition of SOS-mediated nucleotide exchange, purified GST-tagged cRAF (aa 1-149), nickel chelate AlphaLISA acceptor beads (PerkinElmer AL108R), and AlphaScreen glutathione donor beads (PerkinElmer 6765302) were added to the assay wells and incubated for 10 minutes. The assay plates were then read on a PerkinElmer EnVision Multilabel Reader, using AlphaScreen® technology, and data were analyzed using a 4-parameter logistic model to calculate IC50 values.
# GDP-bound KRAS protein (aa 1-169), containing both G12C and C118A amino acid substitutions, sequence (P01116 1-169 isoform P01116-2 G12C/C118A): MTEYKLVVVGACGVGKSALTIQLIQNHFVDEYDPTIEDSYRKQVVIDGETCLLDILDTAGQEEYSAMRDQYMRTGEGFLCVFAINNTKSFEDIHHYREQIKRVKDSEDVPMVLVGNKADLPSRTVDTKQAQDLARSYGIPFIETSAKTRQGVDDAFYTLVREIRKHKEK
row,SMILES,IC50 [nM]
1,"C=CC(=O)N1C[C@H](C)N(C2=NS(=O)(=O)N(c3ccccc3C(C)(C)C)c3nc(-c4ccccc4S(C)(=O)=O)c(Cl)cc32)C[C@H]1C (atropisomer, axis not shown) [Example 1-10-1]",80
2,"C=CC(=O)N1C[C@H](C)N(C2=NS(=O)(=O)N(c3ccccc3C(C)(C)C)c3nc(-c4ccccc4S(C)(=O)=O)c(Cl)cc32)C[C@H]1C (atropisomer, axis not shown) [Example 1-10-2]",5950
3,"C=CC(=O)N1C[C@H](C)N(C2=NS(=O)(=O)N(c3ccccc3C(C)(C)C)c3nc(-c4c(N)cccc4F)c(Cl)cc32)C[C@H]1C (single isomer, unassigned) [Example 1-8-1]",10
4,"C=CC(=O)N1C[C@H](C)N(C2=NS(=O)(=O)N(c3ccccc3C(C)(C)C)c3nc(-c4c(N)cccc4F)c(Cl)cc32)C[C@H]1C (single isomer, unassigned) [Example 1-8-2]",69300
5,"C=CC(=O)N1C[C@H](C)N(C2=NS(=O)(=O)N(c3c(C)cnn3C(C)C)c3nc(-c4ccccc4F)c(Cl)cc32)C[C@H]1C (single isomer, unassigned) [Example 1-11-1]",540
6,"C=CC(=O)N1C[C@H](C)N(C2=NS(=O)(=O)N(c3c(C)ccnc3C(C)C)c3nc(-c4ccccc4C)c(Cl)cc32)C[C@H]1C (single isomer, unassigned) [Example 1-12-2]",3550
7,"C=CC(=O)N1C[C@H](C)N(C2=NS(=O)(=O)N(c3ccccc3C(C)(C)C)c3nc(-c4ccccc4F)c(Cl)cc32)C[C@H]1C [Example 1-1-1, 1-((2R,5S)-4-(6-chloro-7-(2-fluorophenyl)-1-(2-(2-methyl-2-propanyl)phenyl)-2,2-dioxido-1H-pyrido[2,3-c][1,2,6]thiadiazin-4-yl)-2,5-dimethyl-1-piperazinyl)-2-propen-1-one]",150
8,"C=CC(=O)N1C[C@H](C)N(C2=NS(=O)(=O)N(c3ccccc3C(C)(C)C)c3nc(-c4ccccc4F)c(Cl)cc32)C[C@H]1C [Example 1-1-2, 1-((2R,5S)-4-(6-chloro-7-(2-fluorophenyl)-1-(2-(2-methyl-2-propanyl)phenyl)-2,2-dioxido-1H-pyrido[2,3-c][1,2,6]thiadiazin-4-yl)-2,5-dimethyl-1-piperazinyl)-2-propen-1-one]",70800
9,"C=CC(=O)N1C[C@H](C)N(C2=NS(=O)(=O)N(c3c(CC)cccc3CC)c3nc(-c4ccccc4F)c(Cl)cc32)C[C@H]1C [Example 1-6, 1-((2R,5S)-4-(6-chloro-1-(2,6-diethylphenyl)-7-(2-fluorophenyl)-2,2-dioxido-1H-pyrido[2,3-c][1,2,6]thiadiazin-4-yl)-2,5-dimethyl-1-piperazinyl)-2-propen-1-one]",2690
10,"C=CC(=O)N1C[C@H](C)N(C2=NS(=O)(=O)N(c3c(CC)cccc3CC)c3nc(-c4c(N)cccc4F)c(Cl)cc32)C[C@H]1C [Example 1-7, 1-((2R,5S)-4-(7-(2-amino-6-fluorophenyl)-6-chloro-1-(2,6-diethylphenyl)-2,2-dioxido-1H-pyrido[2,3-c][1,2,6]thiadiazin-4-yl)-2,5-dimethyl-1-piperazinyl)-2-propen-1-one]",890
11,C=CC(=O)N1C[C@H](C)N(C2=NS(=O)(=O)N(c3ccccc3C(C)(C)C)c3nc(-c4ccccc4S(C)(=O)=O)c(Cl)cc32)C[C@H]1C [Example 1-10],110
12,"C=CC(=O)N1C[C@H](C)N(C2=NS(=O)(=O)N(c3c(C)ccnc3C(C)C)c3nc(-c4ccccc4C)c(Cl)cc32)C[C@H]1C [Example 1-12, 1-((2R,5S)-4-(6-chloro-7-(2-methylphenyl)-1-(4-methyl-2-(2-propanyl)-3-pyridinyl)-2,2-dioxido-1H-pyrido[2,3-c][1,2,6]thiadiazin-4-yl)-2,5-dimethyl-1-piperazinyl)-2-propen-1-one]",600
13,"C=CC(=O)N1C[C@H](C)N(C2=NS(=O)(=O)N(c3ccc(CN(C)C)cc3C(C)(C)C)c3nc(-c4ccccc4F)c(Cl)cc32)C[C@H]1C [Example 1-13-1, 1-((2R,5S)-4-(6-chloro-1-(4-((dimethylamino)methyl)-2-(2-methyl-2-propanyl)phenyl)-7-(2-fluorophenyl)-2,2-dioxido-1H-pyrido[2,3-c][1,2,6]thiadiazin-4-yl)-2,5-dimethyl-1-piperazinyl)-2-propen-1-one]",40

# Results, then the compound that gave them:
row,IC50 [nM],SMILES
1,1270,"C=CC(=O)N1C[C@H](C)N(C2=NS(=O)(=O)N(c3c(C)cc(N)nc3C(C)C)c3nc(-c4ccccc4F)c(Cl)cc32)C[C@H]1C (atropisomer, axis not shown) [Example 10, 1-((2R,5S)-4-(1-(6-Amino-4-methyl-2-(2-propanyl)-3-pyridinyl)-6-chloro-7-(2-fluorophenyl)-2,2-dioxido-1H-pyrido[2,3-c][1,2,6]thiadiazin-4-yl)-2,5-dimethyl-1-piperazinyl)-2-propen-1-one]"
2,3500,"C=CC(=O)N1C[C@H](C)N(C2=NS(=O)(=O)N(c3c(C)cc(N)nc3C(C)C)c3nc(-c4ccccc4F)c(Cl)cc32)C[C@H]1C (atropisomer, axis not shown) [Example 10-1, 1-((2R,5S)-4-(1-(6-amino-4-methyl-2-(2-propanyl)-3-pyridinyl)-6-chloro-7-(2-fluorophenyl)-2,2-dioxido-1H-pyrido[2,3-c][1,2,6]thiadiazin-4-yl)-2,5-dimethyl-1-piperazinyl)-2-propen-1-one]"
3,390,"C=CC(=O)N1C[C@H](C)N(C2=NS(=O)(=O)N(c3c(C)cc(N)nc3C(C)C)c3nc(-c4ccccc4F)c(Cl)cc32)C[C@H]1C (atropisomer, axis not shown) [Example 10-2, 1-((2R,5S)-4-(1-(6-amino-4-methyl-2-(2-propanyl)-3-pyridinyl)-6-chloro-7-(2-fluorophenyl)-2,2-dioxido-1H-pyrido[2,3-c][1,2,6]thiadiazin-4-yl)-2,5-dimethyl-1-piperazinyl)-2-propen-1-one]"
4,170,"C=CC(=O)N1C[C@H](C)N(C2=NS(=O)(=O)N(c3c(N)ncnc3C(C)C)c3nc(-c4ccccc4F)c(Cl)cc32)C[C@H]1C (single isomer, unassigned) [Example 9-1]"
5,11200,"C=CC(=O)N1C[C@H](C)N(C2=NS(=O)(=O)N(c3c(N)ncnc3C(C)C)c3nc(-c4ccccc4F)c(Cl)cc32)C[C@H]1C (single isomer, unassigned) [Example 9-2]"
6,3870,"C=CC(=O)N1C[C@H](C)N(C2=NS(=O)(=O)N(c3ccc(CN(C)C)cc3C(C)(C)C)c3nc(-c4ccccc4F)c(Cl)cc32)C[C@H]1C [Example 1-13-2, 1-((2R,5S)-4-(6-chloro-1-(4-((dimethylamino)methyl)-2-(2-methyl-2-propanyl)phenyl)-7-(2-fluorophenyl)-2,2-dioxido-1H-pyrido[2,3-c][1,2,6]thiadiazin-4-yl)-2,5-dimethyl-1-piperazinyl)-2-propen-1-one]"
7,530,"C=CC(=O)N1CCN(C2=NS(=O)(=O)N(c3c(C)ccnc3C(C)C)c3nc(-c4ccccc4F)c(Cl)cc32)[C@@H](C)C1 [Example 2-2, (S)-1-(4-(6-chloro-7-(2-fluorophenyl)-1-(2-isopropyl-4-methylpyridin-3-yl)-2,2-dioxido-1H-pyrido[2,3-c][1,2,6]thiadiazin-4-yl)-3-methylpiperazin-1-yl)prop-2-en-1-one]"
